Here are results for 15 compounds from patent US11331299B2, “Medicinal use of serrulatane diterpenes” (The University of Sydney, priority 2016, dated 2022).

Data set [1] deals with T1, enzymes (Bioprint panel) (UniProt A0ABM2YAB8).
T1 construct: other: MT3 (ML2) (agonist radioligand); 10 μM
Put plainly: biochemical. The conditions noted are these: read-out: Reference Compound IC50.

Data set [2] concerns the target receptors (Bioprint panel) (Homo sapiens, UniProt P14867). Put plainly: biochemical. The data set is classed as binding.
The target of data set [3] is T2, enzymes (Bioprint panel).
T2 construct: other: ATPase (Na+/K+); 10 μM
Nature of the data set: biochemical. The conditions noted are these: read-out: Reference Compound IC50.

In the next data set the test system is HMEC. Nature of the data set: OncoPanel normal cell proliferation assay (3-day). The data set is classed as cell-based.
A further data set deals with CCD 841 CoN. Nature of the data set: OncoPanel normal cell proliferation assay (3-day). The data set is classed as cell-based. The conditions noted are these: Homo sapiens, 72 h, colon epithelial, 3-day incubation.
The test system of another data set is HREC. Put plainly: OncoPanel normal cell proliferation assay (3-day). The data set is classed as cell-based. The conditions noted are these: 72 h, renal mixed epithelial, 3-day incubation.
The subject of a further data set is Wi38. Put plainly: OncoPanel normal cell proliferation assay (3-day). The data set is classed as cell-based. To be noted: Homo sapiens, WI-38, 72 h, Wi38, lung fibroblast, 3-day incubation.
Data set [4] concerns 4 normal cell types, CCD 841 CoN, HMEC, HREC and Wi38. Nature of the data set: OncoPanel normal cell proliferation assay (3-day), panel. The conditions noted are these: the other three cell lines (CCD 841 CoN, HREC, Wi38). The data set is classed as cell-based.
Data set [5] deals with T3, enzymes (Bioprint panel) (Homo sapiens, UniProt O00408).
T3 construct: other: PDE2A1 (h); 10 μM; PDE2A1 (h)
T3 sequence (O00408 other isoform, or with tags, fused parts or gaps): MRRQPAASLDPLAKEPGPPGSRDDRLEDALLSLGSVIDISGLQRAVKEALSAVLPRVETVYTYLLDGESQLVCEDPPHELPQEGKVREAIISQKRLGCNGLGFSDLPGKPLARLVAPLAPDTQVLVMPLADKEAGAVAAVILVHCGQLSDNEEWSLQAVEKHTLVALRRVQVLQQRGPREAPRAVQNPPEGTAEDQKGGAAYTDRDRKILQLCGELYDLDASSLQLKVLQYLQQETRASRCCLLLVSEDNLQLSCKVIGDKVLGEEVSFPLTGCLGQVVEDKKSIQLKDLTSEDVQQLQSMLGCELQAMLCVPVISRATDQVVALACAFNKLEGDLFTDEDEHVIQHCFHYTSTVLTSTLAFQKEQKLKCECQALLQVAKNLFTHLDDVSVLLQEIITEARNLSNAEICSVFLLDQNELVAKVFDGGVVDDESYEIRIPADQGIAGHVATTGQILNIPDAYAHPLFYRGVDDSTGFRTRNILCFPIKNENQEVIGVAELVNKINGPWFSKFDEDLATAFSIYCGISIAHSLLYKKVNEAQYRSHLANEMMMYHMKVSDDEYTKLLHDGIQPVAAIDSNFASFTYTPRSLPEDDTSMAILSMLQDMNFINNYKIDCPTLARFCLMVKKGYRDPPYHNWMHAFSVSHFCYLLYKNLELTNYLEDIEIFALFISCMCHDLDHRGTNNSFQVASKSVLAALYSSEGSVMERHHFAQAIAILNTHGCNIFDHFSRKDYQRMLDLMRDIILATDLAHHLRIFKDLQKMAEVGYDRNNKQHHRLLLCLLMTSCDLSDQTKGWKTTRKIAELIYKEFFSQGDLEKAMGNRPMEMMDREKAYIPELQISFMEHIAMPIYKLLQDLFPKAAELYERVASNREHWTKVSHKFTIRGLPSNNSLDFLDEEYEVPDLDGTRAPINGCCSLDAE
Put plainly: biochemical. The conditions noted are these: PDE2A1 (h); read-out: Reference Compound IC50.

Data set [6] addresses receptors (Bioprint panel) (Homo sapiens, UniProt Q9H3N8). Put plainly: biochemical. The data set is classed as binding. To be noted: read-out: Reference Compound IC50.
The target in data set [7] is receptors (Bioprint panel) (Homo sapiens, UniProt Q9GZV3). Nature of the data set: biochemical. Type of data set: binding. The conditions noted are these: choline transporter (CHT1) (h) (antagonist radioligand); read-out: Reference Compound IC50.
receptors (Bioprint panel) (Homo sapiens, UniProt Q9GZV3), sequence (Q9GZV3 whole entry): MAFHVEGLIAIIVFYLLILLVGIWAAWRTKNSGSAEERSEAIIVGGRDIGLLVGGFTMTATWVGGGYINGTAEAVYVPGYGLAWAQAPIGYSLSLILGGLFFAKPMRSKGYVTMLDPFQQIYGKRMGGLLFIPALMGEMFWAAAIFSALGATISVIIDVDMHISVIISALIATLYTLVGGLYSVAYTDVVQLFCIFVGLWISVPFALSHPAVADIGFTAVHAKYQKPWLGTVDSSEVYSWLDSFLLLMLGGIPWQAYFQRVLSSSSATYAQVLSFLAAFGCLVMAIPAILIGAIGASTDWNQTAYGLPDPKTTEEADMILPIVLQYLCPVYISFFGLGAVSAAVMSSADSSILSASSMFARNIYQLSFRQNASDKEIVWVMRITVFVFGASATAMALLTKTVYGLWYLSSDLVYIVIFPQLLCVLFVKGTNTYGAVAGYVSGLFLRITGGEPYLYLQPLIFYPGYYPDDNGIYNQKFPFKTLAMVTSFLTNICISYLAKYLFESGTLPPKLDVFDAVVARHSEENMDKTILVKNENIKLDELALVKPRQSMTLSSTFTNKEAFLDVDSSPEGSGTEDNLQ
Data set [8] addresses receptors (Bioprint panel) (Homo sapiens, UniProt P35348). Put plainly: biochemical. Type of data set: binding. To be noted: read-out: Reference Compound IC50.
The target in data set [9] is receptors (Bioprint panel) (Homo sapiens, UniProt P41595). Put plainly: biochemical. The data set is classed as binding. The conditions noted are these: read-out: Reference Compound IC50.
The target of data set [10] is receptors (Bioprint panel) (Homo sapiens, UniProt P28335). Put plainly: biochemical. Type of data set: binding. To be noted: read-out: Reference Compound IC50.
receptors (Bioprint panel) (Homo sapiens, UniProt P28335), sequence (P28335 33-458): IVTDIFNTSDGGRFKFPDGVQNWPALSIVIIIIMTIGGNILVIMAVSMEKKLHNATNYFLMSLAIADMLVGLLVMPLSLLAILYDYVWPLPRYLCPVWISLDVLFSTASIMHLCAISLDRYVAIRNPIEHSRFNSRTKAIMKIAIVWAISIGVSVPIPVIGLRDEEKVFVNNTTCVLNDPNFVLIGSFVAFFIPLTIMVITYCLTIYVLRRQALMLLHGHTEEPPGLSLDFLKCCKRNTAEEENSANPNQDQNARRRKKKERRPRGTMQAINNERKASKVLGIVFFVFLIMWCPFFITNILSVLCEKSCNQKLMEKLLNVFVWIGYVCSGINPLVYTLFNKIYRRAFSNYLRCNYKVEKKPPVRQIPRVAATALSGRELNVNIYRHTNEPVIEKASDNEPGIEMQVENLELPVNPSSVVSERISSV
The target of data set [11] is T4, BRD3(2) (h) bromodomain (Homo sapiens, UniProt Q15059).
T4 construct: Bromodomain
T4 sequence (Q15059 306-415 limits assumed): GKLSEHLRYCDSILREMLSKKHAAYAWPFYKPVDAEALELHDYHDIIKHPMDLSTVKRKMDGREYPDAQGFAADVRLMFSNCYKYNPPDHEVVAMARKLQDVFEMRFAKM
Nature of the data set: Epigenetic binding assay, Bromodomain. The conditions noted are these: Table 4; read-out: Reference IC50.

For data set [12], the target named is T4, BRD3(2) (h) bromodomain. To be noted: ligand biotin-H4 di acetyl Lys 5/8 100 nM; 30 min/RT; AlphaScreen; read-out: Reference IC50; cited from earlier work.
Data set [13] concerns the target enzymes (Bioprint panel) (Mus musculus, UniProt P29477). Put plainly: biochemical. The conditions noted are these: inducible NOS; read-out: Reference Compound IC50.
The target in data set [14] is enzymes (Bioprint panel). Nature of the data set: biochemical. To be noted: COMT (catechol- O-methyl transferase); read-out: Reference Compound IC50.
The subject of data set [15] is IL-17A secretion from human PBMC stimulated with antiCD3/antiCD28-coated beads. To be noted: assay description, reference compound, cited from earlier work.
The target in data set [16] is receptors (Bioprint panel) (Homo sapiens, UniProt P41597). Put plainly: biochemical. The conditions noted are these: CHEMOKINES CCR2 (h) (agonist radioligand); read-out: Reference Compound IC50. The data set is classed as binding.
The target of data set [17] is CYP2B6 (Bupropion Substrate) (Homo sapiens, UniProt P20813). Put plainly: Cytochrome P450 Inhibition (CYP panel).
CYP2B6 (Bupropion Substrate), sequence (P20813 whole entry): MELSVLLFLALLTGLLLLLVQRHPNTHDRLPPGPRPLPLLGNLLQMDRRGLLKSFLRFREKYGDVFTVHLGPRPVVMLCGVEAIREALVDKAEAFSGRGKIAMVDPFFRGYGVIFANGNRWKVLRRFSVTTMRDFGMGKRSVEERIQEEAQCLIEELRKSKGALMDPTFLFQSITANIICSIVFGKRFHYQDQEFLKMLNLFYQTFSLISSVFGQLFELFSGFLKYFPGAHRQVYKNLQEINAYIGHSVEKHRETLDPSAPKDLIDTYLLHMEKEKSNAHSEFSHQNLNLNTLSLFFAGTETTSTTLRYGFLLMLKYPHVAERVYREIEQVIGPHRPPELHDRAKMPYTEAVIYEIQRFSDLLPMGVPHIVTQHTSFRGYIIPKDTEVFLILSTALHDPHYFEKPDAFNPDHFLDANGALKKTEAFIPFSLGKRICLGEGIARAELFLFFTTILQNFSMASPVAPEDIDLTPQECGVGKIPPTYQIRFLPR

Where two headings read alike, the source gives them in different places.

receptors (Bioprint panel) (Homo sapiens, UniProt Q9H3N8), sequence (Q9H3N8 whole entry): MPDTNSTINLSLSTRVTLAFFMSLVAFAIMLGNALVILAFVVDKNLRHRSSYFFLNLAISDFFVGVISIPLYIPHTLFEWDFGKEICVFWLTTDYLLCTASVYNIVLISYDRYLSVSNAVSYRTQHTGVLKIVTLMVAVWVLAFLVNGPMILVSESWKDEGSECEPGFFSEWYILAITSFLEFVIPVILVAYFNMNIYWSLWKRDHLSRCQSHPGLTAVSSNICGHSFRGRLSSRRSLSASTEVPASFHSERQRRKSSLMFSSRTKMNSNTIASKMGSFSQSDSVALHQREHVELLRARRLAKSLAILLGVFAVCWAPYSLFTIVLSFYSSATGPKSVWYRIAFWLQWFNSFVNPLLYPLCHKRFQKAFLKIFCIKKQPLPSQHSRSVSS
T1 sequence (A0ABM2YAB8 entry or part of it): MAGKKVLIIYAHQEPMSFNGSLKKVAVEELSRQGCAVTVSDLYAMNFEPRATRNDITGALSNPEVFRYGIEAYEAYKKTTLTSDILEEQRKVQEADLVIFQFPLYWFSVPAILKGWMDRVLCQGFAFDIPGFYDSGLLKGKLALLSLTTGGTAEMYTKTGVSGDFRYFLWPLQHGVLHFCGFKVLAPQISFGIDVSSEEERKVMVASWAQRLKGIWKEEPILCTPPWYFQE
enzymes (Bioprint panel) (Mus musculus, UniProt P29477), sequence (P29477 whole entry): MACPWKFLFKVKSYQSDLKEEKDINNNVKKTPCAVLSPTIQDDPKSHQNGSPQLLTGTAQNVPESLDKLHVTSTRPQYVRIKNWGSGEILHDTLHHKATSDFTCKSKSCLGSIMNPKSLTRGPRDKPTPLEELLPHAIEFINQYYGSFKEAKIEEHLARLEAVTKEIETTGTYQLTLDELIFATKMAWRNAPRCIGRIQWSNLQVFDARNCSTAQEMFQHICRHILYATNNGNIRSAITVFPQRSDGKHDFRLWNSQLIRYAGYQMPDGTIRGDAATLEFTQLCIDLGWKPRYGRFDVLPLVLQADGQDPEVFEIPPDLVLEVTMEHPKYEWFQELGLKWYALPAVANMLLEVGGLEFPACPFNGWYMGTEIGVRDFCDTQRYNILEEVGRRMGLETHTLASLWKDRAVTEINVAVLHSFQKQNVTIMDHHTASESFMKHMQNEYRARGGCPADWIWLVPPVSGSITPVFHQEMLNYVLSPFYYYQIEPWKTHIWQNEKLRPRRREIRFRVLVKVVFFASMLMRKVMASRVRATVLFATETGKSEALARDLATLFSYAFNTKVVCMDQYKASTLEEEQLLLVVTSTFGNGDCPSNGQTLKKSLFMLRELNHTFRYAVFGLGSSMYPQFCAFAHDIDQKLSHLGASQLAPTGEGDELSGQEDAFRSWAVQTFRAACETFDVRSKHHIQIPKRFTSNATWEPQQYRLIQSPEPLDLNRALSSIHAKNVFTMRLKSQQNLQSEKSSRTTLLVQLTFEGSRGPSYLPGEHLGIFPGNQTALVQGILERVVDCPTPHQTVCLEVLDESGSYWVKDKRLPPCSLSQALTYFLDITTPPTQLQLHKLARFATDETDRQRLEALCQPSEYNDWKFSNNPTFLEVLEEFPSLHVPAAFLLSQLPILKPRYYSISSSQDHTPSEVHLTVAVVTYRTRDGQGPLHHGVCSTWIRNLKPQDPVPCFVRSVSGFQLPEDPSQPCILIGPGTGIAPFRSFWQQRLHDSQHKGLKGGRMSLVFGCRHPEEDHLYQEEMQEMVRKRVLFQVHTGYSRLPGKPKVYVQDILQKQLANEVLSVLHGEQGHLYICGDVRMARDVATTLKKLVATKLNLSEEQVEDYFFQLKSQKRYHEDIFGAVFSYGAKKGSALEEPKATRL
receptors (Bioprint panel) (Homo sapiens, UniProt P14867), sequence (P14867 28-456): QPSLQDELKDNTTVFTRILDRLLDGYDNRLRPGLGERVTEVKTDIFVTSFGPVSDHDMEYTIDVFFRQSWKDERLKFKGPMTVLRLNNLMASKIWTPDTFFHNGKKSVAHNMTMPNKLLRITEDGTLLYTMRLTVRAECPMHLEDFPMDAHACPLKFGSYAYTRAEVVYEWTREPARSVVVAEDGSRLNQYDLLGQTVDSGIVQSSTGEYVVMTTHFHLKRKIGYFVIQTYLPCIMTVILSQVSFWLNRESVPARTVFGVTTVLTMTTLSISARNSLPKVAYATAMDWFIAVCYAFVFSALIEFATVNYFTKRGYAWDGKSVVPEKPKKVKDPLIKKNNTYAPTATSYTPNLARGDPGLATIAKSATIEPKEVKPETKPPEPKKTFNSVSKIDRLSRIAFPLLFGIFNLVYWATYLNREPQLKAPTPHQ

In the case of `COc1ccc2[nH]cc(CCNC(C)=O)c2c1` [melatonin], the IC50 at enzymes (Bioprint panel) [1] came to 160 nM.

In data set [2], `NCc1cc(=O)[nH]o1` [muscimol] had a half-inhibitory concentration (IC50) of 53 nM.

As for `C[C@@H]1O[C@@H](O[C@H]2C[C@@H](O)[C@]3(CO)[C@H]4[C@H](O)C[C@]5(C)[C@@H](C6=CC(=O)OC6)CC[C@]5(O)[C@@H]4CC[C@]3(O)C2)[C@H](O)[C@H](O)[C@H]1O` [ouabain], the IC50 at enzymes (Bioprint panel) [3] came to 250 nM.

Take `CC(=O)O[C@H]1C(=O)[C@@]2(C)[C@H]([C@H](OC(=O)c3ccccc3)[C@]3(O)C[C@H](OC(=O)[C@H](O)[C@@H](NC(=O)c4ccccc4)c4ccccc4)C(C)=C1C3(C)C)[C@]1(OC(C)=O)CO[C@@H]1C[C@@H]2O` [Paclitaxel, paclitaxel]: the “toxicity towards normal cells” value in the data set with HMEC was “low toxicity”; in [4] it was “high toxicity”. Besides, the EC50 was greater than 30000 nM with HMEC (Homo sapiens, 72 h, HMEC, mammary epithelial, 3-day incubation, read-out: Cell Count EC50); 11.9 nM with CCD 841 CoN (read-out: Cell Count EC50); 1.72 nM with HREC (read-out: Cell Count EC50); 3.9 nM in the data set with Wi38 (read-out: Cell Count EC50). Further, the GI50 is greater than 30000 nM in the data set with HMEC (Homo sapiens, 72 h, HMEC, mammary epithelial, 3-day incubation, read-out: Cell Count GI50); 22.1 nM with CCD 841 CoN (read-out: Cell Count GI50); 1.6 nM in the data set on HREC (read-out: Cell Count GI50); 3.6 nM in the data set with Wi38 (read-out: Cell Count GI50). The IC50 in the data set with HMEC (Homo sapiens, 72 h, HMEC, mammary epithelial, 3-day incubation, read-out: Cell Count IC50) was greater than 30000 nM; in the data set with HREC (read-out: Cell Count IC50) it was 48.4 nM; with Wi38 (read-out: Cell Count IC50), 9.41 nM.

Take `CCCCCC[C@@H]([C@@H](C)O)n1cnc2c(N)ncnc21` (racemic) [EHNA]: the IC50 at enzymes (Bioprint panel) [5] stood at 1200 nM.

`N=C(N)SCCc1cnc[nH]1` [imetit]: the IC50 in data set [6] is 4.7 nM.

As to `C[N+]1(C)CCOC(O)(c2ccc(-c3ccc(C4(O)C[N+](C)(C)CCO4)cc3)cc2)C1` (stereo not drawn) [hemicholinium-3], in [7], the IC50 was found to be 4.6 nM.

`COc1cccc(OC)c1OCCNCC1COc2ccccc2O1` (stereo not drawn) [WB 4101]: the IC50 in data set [8] came out at 0.27 nM.

With `COc1cc(CC(C)N)c(OC)cc1I` (racemic) [(±)DOI], the concentration for half-maximal inhibition (IC50) in [9] amounted to 6.7 nM; in [10], 0.24 nM.

Take `COc1ccccc1S(=O)(=O)Nc1ccc2c(c1)CN(C)C(=O)N2` [PFI-1, reference compound]: the IC50 at BRD3(2) (h) bromodomain [11] and at BRD3(2) (h) bromodomain [12] was 790 nM throughout.

Regarding `CC(=N)NCc1cccc(CN)c1` [1400 W], the IC50 on enzymes (Bioprint panel) [13] turned out to be 29 nM.

`O=C(c1cc(O)c(O)c([N+](=O)[O-])c1)c1ccccc1F` [Ro 41-0960]: the IC50 at enzymes (Bioprint panel) [14] was found to be 61 nM.

On to `C=CC[C@@H]1/C=C(\C)C[C@H](C)C[C@H](OC)[C@H]2O[C@@](O)(C(=O)C(=O)N3CCCC[C@H]3C(=O)O[C@H](/C(C)=C/[C@@H]3CC[C@@H](O)[C@H](OC)C3)[C@H](C)[C@@H](O)CC1=O)[C@H](C)C[C@@H]2OC` [Tacrolimus], for which the “Emax (plateau of the fitted curve), IL-17A release” value in [15] is recorded as “approximately 90%”. For the same compound, the EC50 in data set [15] (read-out: EC50, inhibition of IL-17A release) was roughly 0.34 nM.

In the case of MCP-1, in data set [16], the IC50 turned out to be 0.087 nM.

As for `COC(=O)[C@H](c1ccccc1Cl)N1CCc2sccc2C1` [clopidogrel, reference compound], half-maximal inhibition in [17] (IC50) was put at 390 nM.
